{
  "source": "patent US9045434B1",
  "about": "“Compositions and methods of treatment for myocilin glaucoma by selectively inhibiting GRP94” (University of South Florida, priority 2012, dated 2015)",
  "key": {"I477N mutant myocilin": {"tested_on": "I477N mutant myocilin", "test": "I477N mutant myocilin levels in HEK iI477N cells, Western blot", "format": "cell-based, human", "details": "for effect on I477N mutant myocilin levels: 24 hours, indicated concentrations", "description": "(§1) FIGS. 16A-E are a series of images depicting inhibition of the Hsp90 chaperone complex reduces the levels of the disease-causing I477N myocilin. Western blot of lysates from HEK iI477N cells treated with the indicated concentrations of the pan Hsp90/Grp94 inhibitors 17-AAG (A) and celastrol (B) for 24 hours. (C) Western blot of lysates from HEK cells conditionally over-expressing I477N myocilin that were treated with 7.5 μM of 17-AAG or vehicle (Veh) and harvested at indicated time points. (D) Dot blot of the cell culture media of HEK iWT cells that were treated with the indicated concentration of 17AAG. (E) Western blot of lysates from HEK iI477N cells and treated with indicated concentrations of a Grp94 selective inhibitor for 24 hours.\nA well-established Human Embryonic Kidney (HEK) cell model that conditionally overexpresses wildtype (iWT) or I477N mutant myocilin (iI477N) was used in these studies. (Joe M K & Tomarev S I (2010) Expression of myocilin mutants sensitizes cells to oxidative stress-induced apoptosis: implication for glaucoma pathogenesis. Am J Pathol 176(6):2880-2890) In this inducible and stable cell line, wildtype or I477N myocilin harbors a Flag-tag to ease downstream detection. The inventors confirmed wildtype myocilin secretion and I477N intracellular retention using dot blot analysis of the cell culture media or Western blot of the lysates, respectively (FIG. 10A). The inventors further corroborated ER retention of I477N myocilin by immunofluorescence co-localization (FIG. 10B).\n(§2) Small-molecule inhibition of Hsp90, including Grp94, is in clinical development for a number of diseases, and since Grp94 sequesters mutant myocilin from ERAD and Grp94 knockdown enables efficient clearance, the effects of Hsp90 inhibitors were tested. […] 17AAG facilitated reductions in I477N myocilin as soon as 3 hours after treatment (FIG. 16C). As expected, levels of wildtype myocilin were unaffected by 17-AAG, even at a very high dose (FIG. 16D). […] (Rousaki A, et al. (2011) Allosteric Drugs: The Interaction of Antitumor Compound MKT-077 with Human Hsp70 Chaperones. J Mol Biol 411(3):614-632)\nCells were plated and grown as previously described. […] Inducible cells were treated with […] of Tetracycline to induce myocilin expression, 24 hours prior to transfection. SiRNA transfections were performed with Silentfect reagent (BioRad). DNA Transfections were performed with Lipofectamine 2000 (Invitrogen) for 48 hours. The cells were harvested in Mammalian Protein Extraction Reagent (M-PER) buffer (Pierce) containing 1× protease inhibitor mixture (Calbiochem), 100 mM phenylmethylsulfonyl fluoride, and 1× phosphatase inhibitor II and III cocktails (Sigma).\nCells were treated with Grp94 inhibitor and Hsp70/Grp78 inhibitor for 24 hours. Proteasomal inhibition was achieved by treating cells with 0.6 uM and 0.8 uM of epoxomicin.\nWestern blot and coimmunoprecipitation analyses were performed as previously described. (Abisambra J F, et al. (2012) DnaJA1 Antagonizes Constitutive Hsp70-Mediated Stabilization of Tau. J Mol Biol) Protein samples were prepared using 2× Laemmli sample buffer (Bio-Rad). Samples were boiled for 5-10 min and then loaded onto a 10 well, 10% Tris-glycine gels (Invitrogen) or 18-well, 10% criterion gels (Bio-Rad). The gels were transferred onto PVDF membranes (Millipore) and then blocked for 1 hr at room temperature with 7% milk. […]"}, "[1]": {"tested_on": "full-length Grp94 versus yHsp82", "details": "cited from earlier work"}, "HeLa cells": {"tested_on": "HeLa cells", "test": "HeLa cell survival, XTT assay (GRP94-sufficient or -deficient cells)", "format": "cell-based", "details": "Homo sapiens, 48 hrs, regardless of the presence of GRP94, read-out: IC50 for HeLa cell viability", "description": "(§3) GRP94 and BiP were detected by the anti-KDEL antibody. *, an unknown KDEL-containing band. […] Cell survival was measured by XTT assay (n=4).\nSimilar results were obtained with other cell lines (e.g. C2C12 in FIG. 6)."}, "BiP expression": {"tested_on": "BiP expression", "test": "Induction of BiP expression, immunoblot", "quoted_text": "Grp94, BiP and PDIA6 were detected with the monoclonal anti-KDEL antibody, AKT by rabbit anti-serum. 14-3-3 served as loading control. Numbers below BiP, Grp94, and AKT bands are the relative expression levels, determined by densitometry.\nThe inventors therefore assessed the ability of 2 to cause BiP up-regulation, in comparison to pan-Hsp90 inhibitors."}, "Drosophila larvae (Gp93)": {"tested_on": "Drosophila larvae (Gp93)", "test": "Drosophila larval growth on supplemented fly food", "format": "in vivo", "details": "for effect on Drosophila larval growth: dietary, 250 μg/ml to 1 mg/ml in fly food, first instar w1118 larvae", "text": "(Maynard, J. C. et al. Gp93, the Drosophila GRP94 ortholog, is required for gut epithelial homeostasis and nutrient assimilation-coupled growth control. Dev. Biol. 339, 295-306, (2010)). In the Drosophila model, maternal Gp93 is sufficient to support embryogenesis in Gp93 homozygous null embryos. In the absence of zygotic expression of Gp93, however, larvae display a pronounced growth defect, commensurate with disrupted gut epithelial morphology, decreased gut nutrient uptake, and marked aberrations in copper cell structure and function. As a consequence, loss of Gp93 expression is larval lethal in Drosophila.\nTo determine the effects of compound 2 on Drosophila larval growth, first instar wild type (w1118) larvae were placed onto fly food supplemented with either no supplement (A), 0.1% (B), 0.3% (C), or 0.5% (D) DMSO (vehicle controls) or fly food supplemented with 250 μg/ml (E), 500 μg/ml (F), 750 μg/ml (G) or 1 mg/ml (H) compound 2. […] In parallel experiments, larval gut tissue was obtained from each of the feeding conditions and gut epithelial morphology evaluated by fluorescence microscopy. […] Pharmacokinetic studies of compound absorption and metabolism may provide addition insights into this partial phenotypic behavior."}, "C2C12 cells": {"tested_on": "C2C12 cells", "test": "C2C12 cell viability, XTT assay", "details": "C2C12 cells treated as in the IGF-II assay", "protocol": "The viability of cells treated as in A was measured at each of the indicated concentrations by the XTT assay.\nC2C12 cells (ATCC, Rockville, Md.) were induced to differentiate either by complete withdrawal of serum or by shifting to medium supplemented with 2% house serum. […] Cell growth was measured with the XTT formazan colorimetric assay (Roche), cells were grown in 3% serum, to limit the background of the assay."}, "[2]": {"tested_on": "Hsp90α/β client proteins Raf and Akt", "test": "Western blot of Hsp90α/β client proteins in HEK293 cell lysates", "format": "cell-based, human", "description": "as §3\nIn contrast, loss of functional Hsp90α or Hsp90β results in cell death. […] To support these findings, western blot analyses of Hsp90α/β client proteins were performed from HEK293 cell lysates. Prototypical pan-Hsp90 inhibitors induce proteasome-mediated degradation of Hsp90α/β client substrates.\nCells were harvested in cold PBS and lysed in mammalian protein extraction reagent (MPER, Pierce) and protease inhibitors (Roche) on ice for 1 h. Lysates were clarified at 14,000 g for 10 min at 4° C. Protein concentrations were determined with the Pierce BCA assay kit per the manufacturer's instructions. Equal amounts of protein (10 μg) were electrophoresed under reducing conditions, transferred to a PVDF membrane, and immunoblotted with the corresponding specific antibodies. Membranes were incubated with an appropriate horseradish peroxidase-labeled secondary anti-body, developed with chemiluminescent substrate, and visualized."}, "IGF-II secretion": {"tested_on": "IGF-II secretion", "test": "IGF-II secretion by serum-starved C2C12 cells, ELISA", "format": "cell-based", "details": "10 μM, 48 h", "text": "IGF-II is a second well-defined Grp94-dependent client protein and active Grp94 is required for the secretion of IGF-II (Ostrovsky et al., 2009). […] (Wanderling, S. et al. GRP94 Is Essential for Mesoderm Induction and Muscle Development Because It Regulates Insulin-like Growth Factor Secretion. Mol. Biol. Cell 18, 3764-3775, (2007); Ostrovsky, O., Eletto, D., Makarewich, C., Barton, E. R. & Argon, Y. Glucose regulated protein 94 is required for muscle differentiation through its control of the autocrine production of insulin-like growth factors. BBA—Mol. Cell Res. 1803, 333-341, (2010); Ostrovsky, O., Ahmed, N. T. & Argon, Y. The Chaperone Activity of GRP94 Toward Insulin-like Growth Factor II Is Necessary for the Stress Response to Serum Deprivation. Mol. Biol. Cell 20, 1855-1864, (2009)). Accordingly, serum-starved C2C12 cells were treated with increasing concentrations of compound 2 and the secretion of IGF-II was measured by ELISA (FIG. 5A).\nFor IGF-II ELISA, plates were coated with anti-IGF-II (MAb 792, R&D Systems) and incubated with the test cell media. The bound IGF-II was detected with a biotinylated anti-IGF-II antibody (BAF792, R&D Systems) and developed with streptavidin-HRP (R&D Systems) according to the manufacturer's recommended procedure. […] Data were acquired in duplicate on a microtiter-plate reader (Dynatech Laboratories, Chantilly, Va.) at 450 nm."}, "wildtype myocilin": {"tested_on": "wildtype myocilin", "test": "Wildtype myocilin in HEK iWT cells, dot blot of media", "format": "cell-based, human", "details": "even at a very high dose", "description": "as §1\nas §2, with “411(3):614-632) […]” for “411(3):614-632)”"}},
  "data": [
    {"molecule": "CC[C@H](C)[C@H](NC(=O)[C@H]([C@@H](C)CC)N(C)C(C)=O)C(=O)N[C@H](C(=O)N[C@@H](CC(C)C)C(=O)[C@@]1(C)CO1)[C@@H](C)O", "note": "[epoxomicin]", "values": [
      {"measurement": "effect on clearance of I477N myocilin", "setting": "I477N mutant myocilin; Grp94 knockdown", "result": "no effect on clearance"},
      {"measurement": "effect on clearance of I477N myocilin", "setting": "I477N mutant myocilin; control siRNA conditions", "result": "blocked the clearance of I477N myocilin"}
    ]},
    {"molecule": "radamide [RDA]", "values": [
      {"measurement": "binding affinity for full-length Grp94 relative to yHsp82", "setting": "[1]", "result": "approximately 2 fold"}
    ]},
    {"molecule": "C[C@@H]1C[C@H]2O[C@@H]2/C=C\\C=C\\C(=O)Cc2c(Cl)c(O)cc(O)c2C(=O)O1", "note": "[RDC, radicicol]", "values": [
      {"measurement": "IC50", "setting": "HeLa cells", "result": 8, "unit": "µM"},
      {"measurement": "up-regulation of BiP", "setting": "BiP expression; 10 μM", "result": "did cause BiP up-regulation"}
    ]},
    {"molecule": "CCn1c(=Cc2cccc[n+]2C)sc(=C2Sc3ccccc3N2C)c1=O.[Cl-]", "note": "[YM1]", "values": [
      {"measurement": "effect on I477N mutant myocilin levels", "setting": "I477N mutant myocilin", "result": "did not reduce I477N"}
    ]},
    {"molecule": "COC(=O)c1c(O)cc(O)c(Cl)c1CCc1nccn1Cc1ccccc1", "note": "[Compound 2]", "values": [
      {"measurement": "effect on Drosophila larval growth", "setting": "Drosophila larvae (Gp93)", "result": "dramatic growth phenotype"},
      {"measurement": "effect on Drosophila larval growth", "setting": "Drosophila larvae (Gp93); listed as compound 2", "result": "clearly stunted the growth of drosophila larvae in a dose-dependent manner"},
      {"measurement": "effects on copper cell structure (gut epithelial morphology)", "setting": "Drosophila larvae (Gp93); same feeding conditions, data not shown", "result": "No grossly discernible effects"},
      {"measurement": "effect on cell viability", "setting": "C2C12 cells", "result": "little effect on cell viability"},
      {"measurement": "concentration up to which no degradation of Raf or Akt (cytoplasmic client proteins) is induced", "setting": "[2]; HEK293 cells, 24 h", "result": 100, "unit": "µM"},
      {"measurement": "induction of HSP70", "setting": "[2]; compound 2 at 100 μM, GDA positive control 500 nM, HEK293", "result": "induction of HSP70"},
      {"measurement": "concentration above which BiP expression is induced", "setting": "BiP expression", "result": "above 200 μM"},
      {"measurement": "up-regulation of BiP", "setting": "BiP expression; 0-75 μM", "result": "did not lead to up-regulation of BiP"},
      {"measurement": "effect on Akt at BiP-inducing concentrations", "setting": "BiP expression; above 200 μM", "result": "destabilized Akt"},
      {"measurement": "reduction of IGF-II secretion", "setting": "IGF-II secretion", "result": "Approximately 60%"}
    ]},
    {"molecule": "C=CCNC1=C2C[C@@H](C)C[C@H](OC)[C@H](O)[C@@H](C)/C=C(\\C)[C@H](OC(N)=O)[C@@H](OC)/C=C\\C=C(/C)C(=O)NC(=CC1=O)C2=O", "note": "[Compound 17-AAG]", "values": [
      {"measurement": "levels of wildtype myocilin", "setting": "wildtype myocilin", "result": "unaffected"},
      {"measurement": "up-regulation of BiP", "setting": "BiP expression; 25 μM, data not shown", "result": "did cause BiP up-regulation"},
      {"measurement": "time after treatment at which reductions in I477N myocilin are seen", "setting": "I477N mutant myocilin; 7.5 μM", "result": 3, "unit": "h"},
      {"measurement": "effect on I477N mutant myocilin levels", "setting": "I477N mutant myocilin", "result": "dose-dependent reductions"}
    ]}
  ]
}
